Experiments:
Type in all cases: functional
Conditions in all cases: read-out: Activity
PC-12 [1] = assay: Neuroprotective activity against amyloid beta(25-35)-induced cell death in rat PC12 cells assessed as cell viability at 1 uM incubated for 2 hrs prior to amyloid beta(25-35)-challenge measured after 24 hrs by MTT assay (reference value: 38.8 +/- 1%)
PC-12 [2] = assay: Neuroprotective activity against amyloid beta(25-35)-induced cell death in rat PC12 cells assessed as cell viability at 10 uM incubated for 2 hrs prior to amyloid beta(25-35)-challenge measured after 24 hrs by MTT assay (reference value: 38.8 +/- 1%)
PC-12 [3] = assay: Neuroprotective activity against H2O2-induced cell death in rat PC12 cells assessed as cell viability at 1 uM incubated for 2 hrs prior to H2O2-challenge measured after 24 hrs by MTT assay (reference value: 53.7 +/- 1.7%)
PC-12 [4] = assay: Neuroprotective activity against H2O2-induced cell death in rat PC12 cells assessed as cell viability at 10 uM incubated for 2 hrs prior to H2O2-challenge measured after 24 hrs by MTT assay (reference value: 53.7 +/- 1.7%)
PC-12 [5] = assay: Neuroprotective activity against amyloid beta(25-35)-induced cell death in rat PC12 cells assessed as cell viability at 1 uM incubated for 2 hrs prior to amyloid beta(25-35)-challenge measured after 24 hrs by MTT assay (reference value: 34.8 +/- 0.8%)
PC-12 [6] = assay: Neuroprotective activity against amyloid beta(25-35)-induced cell death in rat PC12 cells assessed as cell viability at 10 uM incubated for 2 hrs prior to amyloid beta(25-35)-challenge measured after 24 hrs by MTT assay (reference value: 34.8 +/- 0.8%)
PC-12 [7] = assay: Neuroprotective activity against H2O2-induced cell death in rat PC12 cells assessed as cell viability at 1 uM incubated for 2 hrs prior to H2O2-challenge measured after 24 hrs by MTT assay (reference value: 53.1 +/- 1.1%)
PC-12 [8] = assay: Neuroprotective activity against H2O2-induced cell death in rat PC12 cells assessed as cell viability at 10 uM incubated for 2 hrs prior to H2O2-challenge measured after 24 hrs by MTT assay (reference value: 53.1 +/- 1.1%)

Compound `C/C=C(\C)C(=O)O[C@H]1c2cc(OC)c(OC)c(OC)c2-c2c(cc3c(c2OC)OCO3)[C@H](OC(=O)CC)[C@H](C)[C@H]1C` has a viability at 1 µM (PC-12 [1]) of 43.1%, a viability at 10 µM (PC-12 [2]) of 39.3% and a viability at 1 µM (PC-12 [3]) of 54.6%. The viability at 10 µM (PC-12 [4]) was 60.7%.

For `COc1cc2c(c(OC)c1OC)-c1c(cc3c(c1OC)OCO3)[C@H](O)[C@H](C)[C@H](C)C2` [ISOGOMISIN O], the viability at 1 µM (PC-12 [1]) was 38%, the viability at 10 µM (PC-12 [2]) was 33.3% and the viability at 1 µM (PC-12 [3]) was 48.8%. For the same compound, the viability at 10 µM (PC-12 [4]) was 55.8%.

In the case of `COc1cc2c(c(OC)c1OC)-c1c(cc3c(c1OC)OCO3)[C@H](OC(=O)/C=C/c1ccccc1)[C@H](C)[C@H](C)C2` [KADSUPHILINS A], the viability at 1 µM (PC-12 [5]) is reported as 35.3%, the viability at 10 µM (PC-12 [6]) is reported as 32.3% and the viability at 1 µM (PC-12 [7]) is reported as 53%. It also gave a viability at 10 µM (PC-12 [8]) of 52.5%.

Work on `COc1cc2c(c(OC)c1OC)-c1c(cc3c(c1OC)OCO3)[C@H](OC(C)=O)[C@H](C)[C@H](C)C2` [KADSURIN] yielded a viability at 1 µM (PC-12 [5]) of 35.1%, a viability at 10 µM (PC-12 [6]) of 32.9% and a viability at 1 µM (PC-12 [7]) of 57.2%. It also gave a viability at 10 µM (PC-12 [8]) of 44%.

In the case of `C/C=C(\C)C(=O)Oc1c(OC)c(OC)cc2c1-c1c(cc(OC)c(OC)c1OC)[C@H](O)[C@H](C)[C@H](C)C2` [METHYL SCHISANTHERIN F], the viability at 1 µM (PC-12 [1]) is reported as 41.4%, the viability at 10 µM (PC-12 [2]) is reported as 41% and the viability at 1 µM (PC-12 [3]) is reported as 50.4%. The viability at 10 µM (PC-12 [4]) was 53.4%.

Compound `C/C=C(/C)C(=O)O[C@H]1c2cc3c(c(OC)c2-c2c(cc(OC)c(OC)c2OC)[C@H](OC(=O)/C(C)=C\C)[C@@H](C)[C@H]1C)OCO3` [POLYSPERLIGNAN A] has a viability at 1 µM (PC-12 [1]) of 39.9%, a viability at 10 µM (PC-12 [2]) of 46.4% and a viability at 1 µM (PC-12 [3]) of 55.8%. The viability at 10 µM (PC-12 [4]) was 58.2%.

`C/C=C(\C)C(=O)O[C@H]1c2cc3c(c(OC)c2-c2c(cc(OC)c(OC)c2OC)[C@H](OC(C)=O)[C@@H](C)[C@H]1C)OCO3` [POLYSPERLIGNAN B] showed a viability at 1 µM (PC-12 [5]) of 36.4%, a viability at 10 µM (PC-12 [6]) of 34.1% and a viability at 1 µM (PC-12 [7]) of 55.9%. The viability at 10 µM (PC-12 [8]) was 58.9%.

`C/C=C(/C)C(=O)O[C@H]1c2cc3c(c(OC)c2-c2c(cc(OC)c(OC)c2OC)[C@H](OC(=O)/C=C/c2ccccc2)[C@@H](C)[C@H]1C)OCO3` [POLYSPERLIGNAN E] showed a viability at 1 µM (PC-12 [1]) of 39%, a viability at 10 µM (PC-12 [2]) of 39.7% and a viability at 1 µM (PC-12 [3]) of 57.1%. The viability at 10 µM (PC-12 [4]) was 58.9%.

`COc1cc2c(c(OC)c1OC)-c1c(cc3c(c1OC)OCO3)[C@H](OC(=O)/C=C\c1ccccc1)[C@H](C)[C@H](C)C2` [POLYSPERLIGNAN F] gave a viability at 1 µM (PC-12 [1]) of 38.4%, a viability at 10 µM (PC-12 [2]) of 36.4% and a viability at 1 µM (PC-12 [3]) of 55.2%. It also gave a viability at 10 µM (PC-12 [4]) of 58.5%.

`C/C=C(/C)C(=O)Oc1c(OC)c(OC)cc2c1-c1c(cc(OC)c(OC)c1OC)[C@H](O)[C@H](C)[C@H](C)[C@H]2OC(=O)/C(C)=C\C` [POLYSPERLIGNAN I] was tested, and the viability at 1 µM (PC-12 [1]) was 39%, the viability at 10 µM (PC-12 [2]) was 41.2% and the viability at 1 µM (PC-12 [3]) was 53.3%. For the same compound, the viability at 10 µM (PC-12 [4]) was 53.7%.

For `COc1cc2c(c(OC)c1OC)-c1c(cc3c(c1OC)OCO3)[C@H](O)[C@@H](C)[C@@H](C)C2` [YUNNANKADSURIN B], the viability at 1 µM (PC-12 [5]) was 35.2%, the viability at 10 µM (PC-12 [6]) was 33.2% and the viability at 1 µM (PC-12 [7]) was 51%. It also gave a viability at 10 µM (PC-12 [8]) of 53.3%.
